# Source: patent US6566140B2, “Inhibition of coagulation in blood and blood products” (University of Vermont and State Agriculture College, priority 1998, dated 2003)
# Assays:
# [1] = system: hemophilia C blood; assay: coagulation in hemophilia C (factor XI deficient) whole blood with factor XI replacement; type: cell-based, human; conditions: for clot time: CTI 48 μg/mL
# Source text: Table 1 below reports the clot times for coagulation in factor XI-deficient blood, deficient blood with replacement and normal whole blood initiated at 25 and 5 pM TF with suppression of contact activation by corn trypsin inhibitor. […] Data are given for each of the experiments described in the text, along with phlebotomy control values i(in parentheses) for clotting in the absence of added tissue factor initiator. […] In all experiments, including controls, factor XIIa activity was suppressed by the addition of corn trypsin inhibitor at the level of 48 μg/mL of blood (see Methods for brief description of the experiments). For the experiments with 25 pM initiator, patient A was the donor; in the 5 pM experiments, the donor was patient B.
# The protocol employed is a modification of Rand, M. D., et al. supra performed under the supervision of one of the authors (R. F. B.) at the Clinical Research Center, Fletcher Allen Health Care (Burlington, Vt.). Clotting in freshly drawn, non-anticoagulated whole blood was carried out in 32 capped polystyrene culture tubes as described, except that two series were performed per experiment (16 tubes/series). Reagents were loaded in the following amounts: corn trypsin inhibitor (all tubes, to give 50 μg/mL blood); relipidated TF (lipid:protein=2000) in HBS with 5 mM calcium (all tubes in each series except phlebotomy control tube, to give 25 or 5 pM TF/mL blood); factor VIII or factor XI (all tubes, replacement series only, to give 1 U/mL final); equivalent volume factor VIII/XI dilution buffer (HBS, pH 7.4, all tubes, deficiency series only). No more than 45 μL reagent were loaded in each tube. The zero tube of each series was pre-treated using 1 mL inhibitor cocktail (containing 50 mM EDTA and 20 mM benzamidine-HCl in HBS, pH 7.4), and 10 μL of 10 mM FPRck (diluted in 0.01 M HCl).
# Patient or normal donor blood was drawn by venipuncture under a protocol approved by the Human Studies Committee at the University of Vermont, as described Rand, M. D., et al. supra. Clotting was initiated by delivery into the reagent-loaded tubes, and with periodic quenching of the tubes with inhibitor cocktail and FPRck as described above. Two series of quenched samples were obtained following reaction progress up to 20 minutes after initiation; both reducing (1% β-mercaptoethanol) and non-reducing SDS-PAGE samples were prepared from each tube (60 μL supernatant, 190 μL 2% SDS-PAGE sample solution Rand, M. D., et al. supra heated exactly 5 minutes at 98+/−2° C.). An aliquot from each tube was filtered to remove cellular contaminants for ostleonectin assays (200 μL, 0.2 μm AcroDisc, Gelman Sciences, Ann Arbor, Mich.). The remaining serum and cell pellets/clots were aliquotted to screw cap tubes, frozen and stored at −20° C. for immunoblot or immunoassay analysis.
# Commercial ELISAs for fibrinopeptide A (FPA), thrombin-antithrombin-III (TAT) and platelet α-granule release (osteonectin) were performed according to manufacturers protocols, with corrections for sample dilution by added quench solution (1.00 mL) and hematocrit (typically 40% of the total blood volume). For analysis of factor Va, samples were separated on SDS-PAGE according to Laemmli, U.K. (1970) Nature 227: 680 as modified by our laboratory Rand, M. D., et al. (1996) supra. Separate gels were run for heavy chain and light chain analysis. Gels were loaded with a pre-stained molecular weight standard mixture (14-200 kDa) and dilute standards (3 samples) allowing comparison and quantitation of analyte amounts horizontally on the immunoblots. Transfer from the gel to nitrocellulose (BioRad, Hercules, Calif.) was performed for 1.5-3 hours via an SDS-free tank transfer procedure as described (Towbin H, et al. (1979) Proc Natl Acad Sci. (USA) 76: 4350 and Gallagher, S. et al. (1993) Current Protocols in Molecular Biology. J. Wiley and Sons. 10.8.1.) with subsequent immunoblot analysis according to Rand, M. D., et al.(1996) supra. […]
# [2] = system: factor XI deficient plasma; assay: tissue factor dependence of clotting in factor XI-deficient plasma; type: biochemical, human; conditions: CTI, factor XI 1 U/mL
# Method: FIG. 3 is explained as follows: clot time in factor XI deficient plasma (<1%) was measured as a function of tissue factor and […] (as described in Methods). The ordinate is shown in seconds (left-hand axis) and minutes (right-hand axis). Two curves are presented: one for factor XI deficient plasma without factor XI replacement (<1%, filled squares) and a second curve for the same plasma with 1 U/mL factor XI (25 nM, filled circles). To connect the data, smooth curves were drawn which meet near 24 pM TF. The curves become increasingly divergent as tissue factor concentration is reduced to 6 pM TF, where the difference is most pronounced.
# Relipidated tissue factor reagent (see above) was rehydrated (200 μl) and diluted with HBS/calcium (2 mM) to obtain a stock reagent containing 552 pM TF and 1.10 μM PCPS. This initial stock was further diluted with PCPS (1. 10 μM) in HBS/calcium (2 mM) to obtain a set of working TF stock concentrations ranging from 17.25 to 552 pM TF at constant lipid concentration. The assay was performed according to the following protocol: Into a polystyrene tube (12×75 mm) was added 200 μL human plasma (XI-deficient, <1% XI:C; or XI-deficient with factor XI replaced at 3.5 μg/mL, 100 U/dL) and 10 μL corn trypsin inhibitor (1.15 mg/mL in HBS). […]
# [3] = factor XI replacement, 25 pM TF
substance,measurement,setting,value
factor XI: human factor XI used for replacement at 1 U/mL,clot time,"[1]; XI-deficient blood (patient A) with factor XI replacement 1 U/mL, 25 pmol/L TF",3.7 min
same,"phlebotomy control clot time, −TF","[1]; XI-deficient blood (patient A) with factor XI replacement, CTI, no TF","(control, −TF > 20.3 min.)"
same,clot time,"[1]; XI-deficient blood (patient B) with factor XI replacement 1 U/mL, 5 pmol/L TF",9.7 min
same,clotting time with factor XI and corn trypsin inhibitor in the absence of TF,[1]; factor XI deficient blood,> 20 min
same,FPA formation rate,"[1]; factor XI replacement, 5 pM TF",7.4 µM/min
same,TAT rate at clot time,"[1]; factor XI replacement, 5 pM TF",119 nM/min
same,final level of TAT,"[1]; factor XI replacement, 5 pM TF",600 nM
same,osteonectin release by clot time,"[1]; factor XI replacement, 5 pM TF",67%
same,thrombin generation rate,"[1]; factor XI replacement, 5 pM TF",119 nmol TAT/L/min
same,time after clot time to complete fibrinogen conversion,"[1]; factor XI replacement, 5 pM TF",2 to 2.5 min
same,time of maximum factor Va heavy chain,"[1]; factor XI replacement, 5 pM TF",~12 min
same,final TAT concentration,[1]; [3],950 nM
same,maximum rate of FPA release,[1]; [3],7.3 µM/min
same,rate of thrombin generation,[1]; [3],85 nmol·L/min
same,thrombin generation rate,[1]; [3],85 nmol TAT/L/min
same,shortening of clot time by factor XI replacement,"[1]; hemophilia C blood, 5 pM TF",6 min
same,difference in clot time without versus with factor XI,[2]; 6 pM TF,5.7 min
same,difference in clot time without versus with factor XI,[2]; 24 pM TF,0.467 min
